# Measured values as given in ChEMBL document CHEMBL5233258, “Recent developments of gallic acid derivatives and their hybrids in medicinal chemistry: A review” (Eur J Med Chem, 2020).
# Tests used:
# [1] = Inhibition of recombinant HIV-1 integrase using V1/V2 as substrate assessed as 3'-end processing of the substrate incubated for 1 hrs; design: species or system Human immunodeficiency virus 1
# [2] = Antioxidant activity in ethanol; assay type: functional
# HepG2 = assay: Cytotoxicity against human HepG2 cells by MTT assay; assay type: functional, cell-based
# HCT-116 [3] = assay: Cytotoxicity against human HCT-116 cells by MTT assay; assay type: functional, cell-based
# [4] = tested on: Mycobacterium tuberculosis; assay: Antitubercular activity against Mycobacterium tuberculosis H37 Rv ATCC 27294 incubated for 7 days by Alamar blue assay; assay type: functional; conditions: H37 Rv ATCC 27294, 168 h, time 7 day
# HeLa = assay: Anticancer activity against human HeLa cells assessed as inhibition of cell growth incubated for 24 hrs by MTT assay; assay type: functional, cell-based
# HCT-116 [5] = assay: Anticancer activity against human HCT-116 cells assessed as inhibition of cell growth incubated for 24 hrs by MTT assay; assay type: functional, cell-based; conditions: HCT-116, 24 h
# HCT-116 [6] = assay: Cytotoxicity against human HCT-116 cells assessed as reduction in cell viability incubated for 72 hrs by MTT assay; assay type: functional, cell-based; conditions: HCT-116, 72 h
# [7] = Antioxidant activity assessed as DPPH radical scavenging activity measured after 30 mins by spectrophotometric analysis; assay type: functional
# MCF7 [8] = assay: Cytotoxicity against human MCF7 cells assessed as reduction in cell viability incubated for 72 hrs by MTT assay; assay type: functional, cell-based; conditions: MCF7, 72 h
# Micrococcus luteus [9] = assay: Antibacterial activity against Micrococcus luteus ATCC 4698 assessed as inhibition of bacterial growth incubated for 48 hrs by broth macrodilution method; assay type: functional
# Bacillus subtilis [10] = assay: Bactericidal activity against Bacillus subtilis ATCC 9372 assessed as inhibition of bacterial growth incubated for 48 hrs by broth macrodilution method; assay type: functional
# Staphylococcus aureus [11] = assay: Bactericidal activity against Staphylococcus aureus ATCC 12598 assessed as inhibition of bacterial growth incubated for 48 hrs by broth macrodilution method; assay type: functional
# [12] = tested on: Corynebacterium ammoniagenes; assay: Antibacterial activity against Brevibacterium ammoniagenes ATCC 6872 assessed as inhibition of bacterial growth incubated for 48 hrs by broth macrodilution method; assay type: functional
# [13] = tested on: Corynebacterium ammoniagenes; assay: Bactericidal activity against Brevibacterium ammoniagenes ATCC 6872 assessed as inhibition of bacterial growth incubated for 48 hrs by broth macrodilution method; assay type: functional
# Micrococcus luteus [14] = assay: Bactericidal activity against Micrococcus luteus ATCC 4698 assessed as inhibition of bacterial growth incubated for 48 hrs by broth macrodilution method; assay type: functional
# Staphylococcus aureus [15] = assay: Antibacterial activity against Staphylococcus aureus ATCC 12598 assessed as inhibition of bacterial growth incubated for 48 hrs by broth macrodilution method; assay type: functional
# Bacillus subtilis [16] = assay: Antibacterial activity against Bacillus subtilis ATCC 9372 assessed as inhibition of bacterial growth incubated for 48 hrs by broth macrodilution method; assay type: functional
# [17] = Inhibition of recombinant HIV-1 integrase using 32-P labeled dBY-1 as substrate assessed as disintegration of substrate incubated for 1 hrs; design: species or system Human immunodeficiency virus 1
# Rattus norvegicus = organism: Rattus norvegicus; assay: Inhibition of tert-butylhydroperoxide induced lipid peroxidation in rat liver microsomes; assay type: functional, Microsome
# [18] = target: T1, Seed linoleate 13S-lipoxygenase-1 (Glycine max, UniProt P08170); assay: Inhibition of soybean LOX-1
# T1 sequence (P08170 whole entry): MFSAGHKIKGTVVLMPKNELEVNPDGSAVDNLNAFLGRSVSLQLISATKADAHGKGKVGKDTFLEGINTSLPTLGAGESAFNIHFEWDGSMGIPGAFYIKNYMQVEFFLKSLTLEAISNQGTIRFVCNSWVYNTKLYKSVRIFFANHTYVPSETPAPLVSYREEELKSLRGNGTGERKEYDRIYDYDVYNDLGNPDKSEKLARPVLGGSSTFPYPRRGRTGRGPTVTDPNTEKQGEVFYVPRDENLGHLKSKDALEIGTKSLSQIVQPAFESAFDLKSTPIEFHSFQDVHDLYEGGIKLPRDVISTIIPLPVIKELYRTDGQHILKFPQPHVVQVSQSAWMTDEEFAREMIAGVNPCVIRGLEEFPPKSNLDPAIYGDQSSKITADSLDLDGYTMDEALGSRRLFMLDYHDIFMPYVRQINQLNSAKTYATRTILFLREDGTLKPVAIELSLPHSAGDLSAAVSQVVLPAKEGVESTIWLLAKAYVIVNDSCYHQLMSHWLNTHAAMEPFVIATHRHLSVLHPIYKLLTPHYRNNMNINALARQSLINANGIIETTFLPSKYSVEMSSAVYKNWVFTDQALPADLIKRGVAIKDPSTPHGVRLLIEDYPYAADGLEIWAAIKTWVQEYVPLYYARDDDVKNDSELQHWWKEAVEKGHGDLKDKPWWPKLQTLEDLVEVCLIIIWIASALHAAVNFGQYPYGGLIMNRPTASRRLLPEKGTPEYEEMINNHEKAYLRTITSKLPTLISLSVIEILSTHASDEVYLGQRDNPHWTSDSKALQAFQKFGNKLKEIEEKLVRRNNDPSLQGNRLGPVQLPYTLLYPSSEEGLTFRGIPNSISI
# Plasmodium falciparum = assay: Antimalarial activity against Plasmodium falciparum; assay type: functional, organism-based
# MCF7 [19] = assay: Anticancer activity against human MCF7 cells assessed as inhibition of cell growth incubated for 24 hrs by MTT assay; assay type: functional, cell-based; conditions: MCF7, 24 h
# [20] = Antioxidant activity in DOPC loaded liposomes by DPPH scavenging assay; assay type: physicochemical
# Human alphaherpesvirus 2 = assay: Antiviral activity against Herpes simplex viruses type 2 MS infected in Monkey BGM cells; assay type: functional, organism-based; conditions: Human alphaherpesvirus 2, MS
# [21] = Antioxidant activity in ethanol solution by DPPH scavenging assay; assay type: functional
structure (smiles),measurement,setting,value
O=C(OC[C@]1(O)C[C@@H](O)[C@@H](O)[C@H](OC(=O)c2cc(O)c(O)c(O)c2)C1)c1cc(O)c(O)c(O)c1,IC50,[1],2.79 µM
CCCCCCCCOC(=O)c1cc(O)c(O)c(O)c1 [OCTYL_GALLATE],IC50,[2],19 ppm
COc1ccc(C2=NN(C(=O)c3cc(O)c(O)c(O)c3)C(c3ccc(C#N)cc3)C2)cc1OC (stereo not given),IC50,HepG2,15.2 µg/mL
same,IC50,HCT-116 [3],31.5 µg/mL
COc1ccc(C2CC(c3ccc(OC)c(OC)c3)=NN2C(=O)c2cc(O)c(O)c(O)c2)cc1 (stereo not given),IC50,HepG2,8.4 µg/mL
same,IC50,HCT-116 [3],18.6 µg/mL
O=C(NN1C(=O)CSC1c1ccccc1Cl)c1cc(O)c(O)c(O)c1 (stereo not given),MIC,[4],0.79 µg/mL
O=C(O)c1cc(O)c(O)c(O)c1 [GALLIC ACID],IC50,HeLa,26.3 µg/mL
same,IC50,HCT-116 [5],41.8 µg/mL
O=C(N/N=C/c1c[nH]c2ccc(Br)cc12)c1cc(O)c(O)c(O)c1,IC50,HCT-116 [6],13.3 µM
same,IC50,[7],172 µM
same,IC50,MCF7 [8],6.7 µM
COc1cccc(OC)c1C(=O)N[C@@H]1C(=O)N2[C@@H]1SC(C)(C)[C@@H]2C(=O)O [METHICILLIN],MIC,Micrococcus luteus [9],6.25 µg/mL
same,MBC,Bacillus subtilis [10],6.25 µg/mL
same,MBC,Staphylococcus aureus [11],> 6.25 µg/mL
same,MIC,[12],25 µg/mL
same,MBC,[13],25 µg/mL
same,MBC,Micrococcus luteus [14],6.25 µg/mL
same,MIC,Staphylococcus aureus [15],1.56 µg/mL
same,MIC,Bacillus subtilis [16],1.56 µg/mL
O=C(O[C@@H]1C[C@@H](O)[C@@H](O)[C@H](OC(=O)c2cc(O)c(O)c(O)c2)C1)c1cc(O)c(O)c(O)c1,IC50,[1],0.33 µM
COc1cc(/C=C/C(=O)CC(=O)/C=C/c2ccc(O)c(OC)c2)ccc1O [CURCUMIN],IC50,HCT-116 [6],34.7 µM
same,IC50,MCF7 [8],13.7 µM
O=C(/C=C/c1ccc(O)c(O)c1)O[C@@H]1C[C@](O)(C(=O)O)C[C@@H](OC(=O)/C=C/c2ccc(O)c(O)c2)[C@H]1O,IC50,[17],5.53 µM
NNC(=O)c1ccncc1 [ISONIAZID],MIC,[4],0.56 µg/mL
O=c1c(O[C@@H]2O[C@H](CO)[C@@H](O)[C@H](O)[C@H]2O)c(-c2ccc(O)c(O)c2)oc2cc(O)cc(O)c12 [ISOQUERCETIN],IC50,Rattus norvegicus,972 µM
O=C(N/N=C/c1c[nH]c2ccc(Cl)cc12)c1cc(O)c(O)c(O)c1,IC50,HCT-116 [6],19.2 µM
same,IC50,[7],189 µM
same,IC50,MCF7 [8],6.7 µM
CCCCCCCCCCCCOC(=O)c1cc(O)c(O)c(O)c1 [DODECYL GALLATE],MIC,Micrococcus luteus [9],> 200 µg/mL
same,MBC,Bacillus subtilis [10],> 200 µg/mL
same,MBC,Staphylococcus aureus [11],> 200 µg/mL
same,MIC,[12],> 200 µg/mL
same,MBC,[13],> 200 µg/mL
same,MBC,Micrococcus luteus [14],> 200 µg/mL
same,IC50,[18],1.1 µM
same,MIC,Staphylococcus aureus [15],> 200 µg/mL
same,MIC,Bacillus subtilis [16],> 200 µg/mL
O=C(OC[C@H]1O[C@@H](Oc2c(-c3ccc(O)c(O)c3)oc3cc(O)cc(O)c3c2=O)[C@H](O)[C@@H](O)[C@@H]1O)c1cc(O)c(O)c(O)c1,IC50,Rattus norvegicus,6.64 µM
O=C(O[C@@H]1C[C@H](O)C[C@@H](O)[C@H]1O)c1cc(O)c(O)c(O)c1,IC50,[1],0.71 µM
N#Cc1c(NC(=O)c2cc(O)c(O)c(O)c2)sc2c1CCCCC2,IC50,HCT-116 [5],3.2 µg/mL
CCCCCCOC(=O)c1cc(O)c(O)c(O)c1 [HEXYL GALLATE],IC50,Plasmodium falciparum,110 µM
CC(=O)O[C@H]1C(=O)[C@@]2(C)[C@H]([C@H](OC(=O)c3ccccc3)[C@]3(O)C[C@H](OC(=O)[C@H](O)[C@@H](NC(=O)c4ccccc4)c4ccccc4)C(C)=C1C3(C)C)[C@]1(OC(C)=O)CO[C@@H]1C[C@@H]2O [PACLITAXEL],IC50,MCF7 [19],0.0025 µM
same,IC50,HepG2,0.66 µg/mL
same,IC50,HCT-116 [3],0.915 µg/mL
COC(=O)c1cc(O)c(O)c(O)c1 [GALLIC ACID METHYL ESTER],IC50,[20],8.41 µM
same,IC50,Plasmodium falciparum,30 µM
same,IC50,Human alphaherpesvirus 2,0.224 µM
same,IC50,[21],7.2 µM
N#Cc1c(NC(=O)c2cc(O)c(O)c(O)c2)sc2c1CCC2,IC50,HeLa,59.4 µg/mL
